# Key:
# Format in all cases: cell-based
# [1] = biological target: T1, SMARCA4 (Homo sapiens, UniProt P51532); test: SMARCA4 Western blot degradation in MV4-11 cells; conditions: for DC50 / Dmax: 24 h; for DC50: read-out: SMARCA4 MSD MV411 degradation 24 h: Mean external-Abs DC50; for Dmax: MV4-11, MV4-11 cells, read-out: SMARCA4 MSD MV411 degradation 24 h: average Dmax %
# T1 construct: SMARCA2/SMARCA4 protein degradation selectivity in MV4-11 cells; endogenous in cells; host or cells: MV4-11
# Outline: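 Protein levels quantified by LI-COR Western blot (beta-actin loading control) in RIPA lysates of MV4-11 cells after 24 h compound exposure. Degradation reported as DC50, Dmax % at 24 h and SMARCA2 vs SMARCA4 selectivity, each binned into letter codes.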
# [2] = biological target: T2, SMARCA2 (Homo sapiens, UniProt P51531); test: SMARCA2 Western blot degradation in MV4-11 cells; design: SMARCA2/SMARCA4 protein degradation selectivity in MV4-11 cells; endogenous in cells; host or cells: MV4-11; conditions: for DC50: read-out: SMARCA2 MSD MV411 degradation 24 h: Mean external-Abs DC50; for Selectivity in MV411: SMARCA2/4 selectivity; for Dmax: MV4-11, MV4-11 cells, read-out: SMARCA2 MSD MV411 degradation 24 h: average Dmax %
# T2 sequence (P51531 whole entry): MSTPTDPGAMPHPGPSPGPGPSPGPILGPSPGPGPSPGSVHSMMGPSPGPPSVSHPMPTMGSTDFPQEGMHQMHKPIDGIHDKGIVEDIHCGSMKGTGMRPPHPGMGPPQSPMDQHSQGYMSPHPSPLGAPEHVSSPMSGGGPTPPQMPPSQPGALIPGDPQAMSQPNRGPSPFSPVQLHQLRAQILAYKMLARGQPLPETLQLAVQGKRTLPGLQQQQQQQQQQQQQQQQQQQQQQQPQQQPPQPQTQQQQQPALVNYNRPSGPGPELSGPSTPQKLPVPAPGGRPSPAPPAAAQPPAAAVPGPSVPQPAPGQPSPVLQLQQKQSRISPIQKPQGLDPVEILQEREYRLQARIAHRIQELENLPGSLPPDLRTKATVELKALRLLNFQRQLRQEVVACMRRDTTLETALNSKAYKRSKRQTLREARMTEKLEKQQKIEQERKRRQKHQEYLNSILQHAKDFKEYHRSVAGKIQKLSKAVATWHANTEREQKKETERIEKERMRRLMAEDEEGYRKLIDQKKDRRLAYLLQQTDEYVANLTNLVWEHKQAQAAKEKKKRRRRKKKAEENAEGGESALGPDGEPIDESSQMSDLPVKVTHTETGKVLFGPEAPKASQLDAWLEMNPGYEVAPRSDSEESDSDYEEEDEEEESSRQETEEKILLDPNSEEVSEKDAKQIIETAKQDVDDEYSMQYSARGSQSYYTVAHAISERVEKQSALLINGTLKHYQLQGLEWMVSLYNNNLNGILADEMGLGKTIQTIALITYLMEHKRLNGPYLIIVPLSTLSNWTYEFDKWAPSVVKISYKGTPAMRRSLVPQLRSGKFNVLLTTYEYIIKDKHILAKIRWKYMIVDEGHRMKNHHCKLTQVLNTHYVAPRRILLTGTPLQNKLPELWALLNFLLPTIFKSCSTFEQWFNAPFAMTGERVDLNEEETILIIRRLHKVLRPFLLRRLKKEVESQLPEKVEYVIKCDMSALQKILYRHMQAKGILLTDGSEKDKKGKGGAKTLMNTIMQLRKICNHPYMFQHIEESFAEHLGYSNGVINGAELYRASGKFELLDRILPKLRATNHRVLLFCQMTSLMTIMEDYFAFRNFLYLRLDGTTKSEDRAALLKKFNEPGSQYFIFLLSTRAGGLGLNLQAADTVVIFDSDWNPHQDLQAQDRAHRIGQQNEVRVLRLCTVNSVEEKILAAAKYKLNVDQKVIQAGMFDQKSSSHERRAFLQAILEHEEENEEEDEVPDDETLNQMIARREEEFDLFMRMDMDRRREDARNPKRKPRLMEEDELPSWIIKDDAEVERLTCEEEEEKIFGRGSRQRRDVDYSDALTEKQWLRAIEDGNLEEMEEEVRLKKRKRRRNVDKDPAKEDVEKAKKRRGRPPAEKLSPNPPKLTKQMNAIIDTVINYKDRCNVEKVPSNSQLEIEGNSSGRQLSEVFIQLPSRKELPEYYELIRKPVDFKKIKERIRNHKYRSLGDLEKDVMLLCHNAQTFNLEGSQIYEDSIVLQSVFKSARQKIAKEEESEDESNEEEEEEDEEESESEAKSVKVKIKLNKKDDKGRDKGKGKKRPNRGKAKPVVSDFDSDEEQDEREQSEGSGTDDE
# [3] = biological target: T2, SMARCA2; test: MSD SMARCA2 degradation in A549 cell line; conditions: for SMARCA2 MSD A549 degradation 24 h: Average Dmax % / DC50: A549 cells; for DC50 / Dmax: 24 h; for DC50: read-out: SMARCA2 MSD A549 degradation 24 h: Average external-Abs DC50; for Dmax: A549, A549 cells
# Outline: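 SMARCA2 protein remaining after 24 h exposure of A549 cells (top concentration 1000 nM, 3-fold dilutions) was measured by MSD electrochemiluminescence immunoassay of cell lysates. Results are given as binned DC50 and maximal degradation (Dmax) codes.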
# T1 sequence (P51532 whole entry): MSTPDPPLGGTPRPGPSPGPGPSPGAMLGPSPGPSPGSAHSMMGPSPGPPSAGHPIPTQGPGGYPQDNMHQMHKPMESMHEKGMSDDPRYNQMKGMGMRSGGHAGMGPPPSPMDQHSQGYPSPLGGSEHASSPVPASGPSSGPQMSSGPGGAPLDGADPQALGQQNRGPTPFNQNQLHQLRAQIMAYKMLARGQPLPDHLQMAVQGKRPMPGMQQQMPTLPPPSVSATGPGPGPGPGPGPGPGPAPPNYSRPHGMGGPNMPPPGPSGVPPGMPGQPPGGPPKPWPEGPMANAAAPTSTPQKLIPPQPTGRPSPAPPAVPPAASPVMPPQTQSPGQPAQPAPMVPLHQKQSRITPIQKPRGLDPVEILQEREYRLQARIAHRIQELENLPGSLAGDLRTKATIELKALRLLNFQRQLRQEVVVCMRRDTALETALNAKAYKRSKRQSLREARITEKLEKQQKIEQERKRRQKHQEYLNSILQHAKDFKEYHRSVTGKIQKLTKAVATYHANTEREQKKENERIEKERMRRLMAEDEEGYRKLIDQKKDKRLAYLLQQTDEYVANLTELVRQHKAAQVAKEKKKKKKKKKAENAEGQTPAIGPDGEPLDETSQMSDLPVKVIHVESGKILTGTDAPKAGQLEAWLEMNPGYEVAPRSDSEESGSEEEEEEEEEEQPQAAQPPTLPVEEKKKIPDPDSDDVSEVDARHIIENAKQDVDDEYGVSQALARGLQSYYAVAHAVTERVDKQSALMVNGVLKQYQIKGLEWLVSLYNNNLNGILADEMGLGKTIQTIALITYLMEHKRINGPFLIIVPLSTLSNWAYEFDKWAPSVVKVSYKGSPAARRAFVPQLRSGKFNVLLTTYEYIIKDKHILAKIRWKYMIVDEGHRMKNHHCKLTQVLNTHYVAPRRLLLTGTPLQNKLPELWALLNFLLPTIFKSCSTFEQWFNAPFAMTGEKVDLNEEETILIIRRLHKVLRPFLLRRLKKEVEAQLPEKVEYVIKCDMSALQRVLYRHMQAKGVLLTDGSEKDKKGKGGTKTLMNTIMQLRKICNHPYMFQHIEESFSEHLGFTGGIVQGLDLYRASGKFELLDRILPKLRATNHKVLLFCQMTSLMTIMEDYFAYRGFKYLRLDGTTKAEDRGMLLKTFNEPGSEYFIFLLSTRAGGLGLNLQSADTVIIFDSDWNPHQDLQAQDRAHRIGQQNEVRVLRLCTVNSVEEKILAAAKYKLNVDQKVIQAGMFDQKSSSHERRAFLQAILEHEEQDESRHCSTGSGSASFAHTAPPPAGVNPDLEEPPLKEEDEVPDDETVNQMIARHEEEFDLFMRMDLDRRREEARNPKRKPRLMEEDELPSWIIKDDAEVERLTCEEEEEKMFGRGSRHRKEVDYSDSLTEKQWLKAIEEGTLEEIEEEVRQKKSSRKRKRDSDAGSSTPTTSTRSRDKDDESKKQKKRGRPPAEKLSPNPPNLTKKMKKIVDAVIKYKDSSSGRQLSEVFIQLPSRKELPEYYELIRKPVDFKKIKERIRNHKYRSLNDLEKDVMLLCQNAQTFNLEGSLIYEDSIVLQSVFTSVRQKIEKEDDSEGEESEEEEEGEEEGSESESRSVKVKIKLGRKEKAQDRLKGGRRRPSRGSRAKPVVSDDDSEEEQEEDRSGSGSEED
Compound,SMARCA4 MSD MV411 degradation 24 h: average Dmax % ([1]; MV4-11 cells),DC50 ([1]; MV4-11 cells) [nM],"SMARCA2 MSD MV411 degradation 24 h: average Dmax % ([2]; MV4-11 cells, 24 h)","DC50 ([2]; MV4-11 cells, 24 h) [nM]",Selectivity in MV411 ([2]; MV4-11 cells),SMARCA2 MSD A549 degradation 24 h: Average Dmax % [3],DC50 [3] [nM],Dmax [1] [%],Dmax ([2]; 24 h) [%],Dmax [3] [%]
"CC(C)(C)[C@H](NC(=O)[C@H]1CCC2(CC1)C[C@H](N1CCC(c3cnc(N4CCN5c6cc(-c7ccccc7O)nnc6NC[C@H]5C4)nc3)CC1)C2)C(=O)N1C[C@H](O)C[C@H]1C(=O)NCC#Cc1ccc(Cl)cc1 (single isomer, unassigned) [I-114]",D (D (<50% degradation)),> 100,D (D (<50% degradation)),> 100,C (C (10-100 fold)),D (D (<50% degradation)),> 100,–,–,–
"Cc1ncsc1-c1ccc(CNC(=O)[C@@H]2C[C@@H](O)CN2C(=O)C(c2cc(OC[C@H]3CC[C@H](N4CCC(c5cnc(N6CCc7[nH]c8nnc(-c9ccccc9O)cc8c7[C@@H]6C)nc5)CC4)CC3)no2)C(C)C)cc1 (single isomer, unassigned) [I-15]",–,10 to 100,–,1 to 10,C (C (10-100 fold)),–,10 to 50,> 90,> 90,> 90
Cc1ncsc1-c1ccc(CNC(=O)[C@@H]2C[C@@H](O)CN2C(=O)[C@@H](OC(=O)N2CC3(CC(N4CCN(c5cnc(N6CCN7c8cc(-c9ccccc9O)nnc8NC[C@H]7C6)nc5)CC4)C3)C2)C(C)(C)C)cc1 [I-96],–,1 to 10,–,< 1,C (C (10-100 fold)),–,< 10,> 90,> 90,> 90
"C#Cc1ccc(CNC(=O)[C@@H]2C[C@@H](O)CN2C(=O)[C@@H](NC(=O)[C@H]2CCC3(CC2)C[C@H](N2CCC(c4cnc(N5CCN6c7cc(-c8ccccc8O)nnc7NC[C@H]6C5)nc4)CC2)C3)C(C)(C)C)c(OC)c1 (single isomer, unassigned) [I-100]",–,10 to 100,–,< 1,C (C (10-100 fold)),A (A (>90% degradation)),< 10,70 to 90,> 90,–

# Continued, values first:
SMARCA4 MSD MV411 degradation 24 h: average Dmax % ([1]; MV4-11 cells),DC50 ([1]; MV4-11 cells) [nM],"SMARCA2 MSD MV411 degradation 24 h: average Dmax % ([2]; MV4-11 cells, 24 h)","DC50 ([2]; MV4-11 cells, 24 h) [nM]",Selectivity in MV411 ([2]; MV4-11 cells),SMARCA2 MSD A549 degradation 24 h: Average Dmax % [3],DC50 [3] [nM],Dmax [1] [%],Dmax ([2]; 24 h) [%],Dmax [3] [%],Compound
–,> 100,–,10 to 100,B (B (>100-500 fold)),–,> 100,< 50,70 to 90,> 90,C#Cc1ccc(CNC(=O)[C@@H]2C[C@@H](O)CN2C(=O)[C@@H](NC(=O)N2CC3(CN(CC4CCN(c5cnc(N6CCc7[nH]c8nnc(-c9ccccc9O)cc8c7[C@H]6C)nc5)CC4)C3)C2)C(C)(C)C)cc1 [I-164]
–,> 100,–,1 to 10,A (A (>500 fold)),–,< 10,< 50,70 to 90,> 90,C#Cc1ccc([C@H](C)NC(=O)[C@@H]2C[C@@H](O)CN2C(=O)[C@@H](NC(=O)N2CC3(CC(N4CCC(c5cnc(N6CCc7[nH]c8nnc(-c9ccccc9O)cc8c7[C@H]6C)nc5)CC4)C3)C2)C(C)(C)CCO)cc1 [I-259]
–,> 100,–,10 to 100,B (B (>100-500 fold)),–,> 100,< 50,50 to 70,70 to 90,"C#Cc1ccc(CNC(=O)[C@@H]2C[C@@H](O)CN2C(=O)[C@@H](NC(=O)[C@H]2CC3(C2)C[C@H](N2CCC(N4CCC(N5CCN6c7cc(-c8ccccc8O)nnc7NC[C@H]6C5)CC4)CC2)C3)C(C)(C)CCO)cc1 (single isomer, unassigned) [I-364]"
–,10 to 100,–,1 to 10,C (C (10-100 fold)),–,< 10,70 to 90,> 90,> 90,C#Cc1ccc(CNC(=O)[C@@H]2C[C@@H](O)CN2C(=O)[C@@H](NC(=O)[C@H]2CC[C@H](CN3CCC(c4cnc(N5CCN6c7cc(-c8ccccc8O)nnc7NC[C@H]6C5)nc4)CC3)CC2)C(C)(C)C)cc1 [I-294]
–,> 100,–,> 100,C (C (10-100 fold)),–,> 100,< 50,< 50,70 to 90,C#Cc1ccc(CNC(=O)[C@@H]2C[C@@H](O)CN2C(=O)[C@@H](NC(=O)N2CCC(N3CC4(CC(N5CCC(N6CCc7[nH]c8nnc(-c9ccccc9O)cc8c7[C@H]6C)CC5)C4)C3)CC2)C(C)(C)C)cc1 [I-206]

# — US20250170248A1, “SMARCA DEGRADERS AND USES THEREOF” (Kymera Therapeutics, Inc., priority 2021, published 2025)
